How the values were obtained:
[1] = Stability assay in liver microsome in vitro; format: in vitro ADME, Mouse
Method: IV. Stability Assay in Liver Microsome In Vitro
To evaluate the metabolic stability of the compounds of the present invention in liver microsome in vitro.
Formulation of the working solution of the compound: 2 μL of the stock solution of the compound was added to 998 μL of phosphate buffer, and the final concentration was 20 μM.
Formulation of the working solution of the control compound (7-hydroxycoumarin): The formulation was consistent with that of the compound. • 3.2. Formulation of the working solution of liver microsome
78.1 μL of 20 mg/mL microsome was diluted to 2.5 mL with 100 mM phosphate buffer and mixed well, and the final concentration was 0.625 mg/mL. • 3.3. Formulation of NADPH and UDPGA
33.3 mg of NADPH and 25.8 mg of UDPGA were weighed respectively, followed by the addition of 2 mL of 100 mM phosphate buffer. The final concentrations were 20 mM. • 3.4. Formulation of the channel-forming reagent (Alamethicin)
1 mg of Alamethicin was weighed, to which 200 μL of DMSO was added to obtain a 5 mg/mL solution. 10 μL of this solution was added to 990 μL of phosphate buffer (pH 7.4), and the final concentration was 50 μg/mL. • 3.5. Formulation of the reaction stop solution
Stop solution: Cold acetonitrile containing 100 ng/mL labetalol hydrochloride and 400 ng/mL tolbutamide was used as internal standards, and stored in a refrigerator at 2 to 8° C. • 3.6. Incubation procedure
400 μL of the formulated liver microsome, 25 μL of the working solution of the compound […] and 25 μL of Alamethicin (50 μg/mL) were added to a 96-well plate successively, which was then pre-incubated at 37° C. for 10 min. 50 μL of the formulated NADPH/UDPGA was added to initiate the reaction, and the plate was incubated at 37° C. The total volume of the reaction system was 500 μL. The final contents of the components were as follows:
[…] The resulting sample was centrifuged at 4000 g for 10 min, and the supernatant was collected for LC-MS/MS analysis.

[2] = tested on: Rats F344; test: Pharmacodynamic model of active escape experiment in rats; format: in vivo; details: oral, dose 1 mg/kg, one hour before the test
Method: V. Pharmacodynamic Model of Active Escape Experiment in Rats
To evaluate the anti-schizophrenic effect of the compounds using the pharmacodynamic model of the active escape experiment in rats.
4. Formulation of the Vehicle and Compounds: • 4.1 Vehicle (0.5% CMC-Na+1% Tween80)
A certain mass (such as 1.0 g) of CMC-Na was weighed into a glass bottle, a certain volume (such as 200 mL) of purified water was added, and the resulting mixture was stirred to disperse evenly. 1% (v/v) Tween 80 was added according to the solution volume, and the resulting mixture was stirred overnight to obtain a homogeneous clear solution, which was stored at 2 to 8° C. for later use. • 4.2 Formulation of the compounds: […]
A formula amount of the compound was weighed, followed by the addition of a formula volume of 0.5% CMC-Na+1% Tween 80 solution. The compound solution was formulated before the administration, stored at 2 to 8° C., and used within 4 days.
The day before the compound screening test, a baseline test was performed. The test procedure was the same as 5.1.1 to 5.1.3, and the number of the baseline test was 20. The animals whose number of avoids reached 16 (80%) were grouped according to the number of avoids, 10 animals per group. The first group was administered with the vehicle orally, and the other groups were administered with the corresponding test compounds according to the experimental design. • 5.3 Compound screening test
The compound was administered orally (5 mL/kg) one hour before the test;
The test procedure was the same as 5.1.1 to 5.1.4, and the number of the test was 20.
The following data was collected by the software for data analysis: • Number of avoids of the animal; • Number of escape failures of the animal; • Escape latency of the animal;
All measurement data were expressed as mean±standard error (Mean±SEM), and analyzed by Graphpad 6 statistical software. The difference was considered to be significant when p<0.05.

[3] = target: Human Dopamine D3 Receptor (Homo sapiens (Human), UniProt P35462); test: Radioligand-receptor binding assay, dopamine D3 receptor ([3H]-methylspiperone); details: [3H]-methylspiperone 0.5 nM, human D3 receptor membrane
Method: Determination of the Binding Ability of the Compounds of the Present Invention to Dopamine D3 Receptor
The objective of this test example is to determine the affinity of the compounds for dopamine D3 receptor.
Assay buffer: 50 mM Tris-HCl pH 7.4, 10 mM MgCl2; wash solution: 50 mM Tris-HCl pH 7.4, stored at 4° C.; 0.5% PEI solution: 0.5 g PEI dissolve in 100 mL ddH2O, 4° C. storage of spare.
(§1) 5 μL of the test compounds (0.005 nM to 100 nM, 10 concentrations in total) and 100 μL of buffer were added to a 96-well assay plate. 1 μL of cell membrane and 300 μL of buffer were added to each well, and the plate was shaken at 600 rpm for 5 min. A mixed solution of 100 μL of buffer and [^3H]-methylspiperone (the final concentration was 0.5 nM) was added to each well. The plate was shaken at 600 rpm for 5 min, and incubated at 27° C. for 30 min. The […]-96 GF/B filter plate pre-incubated with 0.5% PEI for 1 h was washed twice with the buffer (1 mL/well). The cell membrane suspension was added to the […]-96 GF/B filter plate, washed 4 times, and incubated at 55° C. for 10 min. 40 μL of ULTIMA GOLD was added to each well, and liquid scintillation counting was carried out.
(§2) The CPM (Counts per minute) values were determined by TopCount. […] The 10 concentrations of the compound were from 100 nM to 0.005 nM after 3-fold dilution of the reaction system. The percent inhibition rate and ten-point concentration data were fitted to the parametric nonlinear logistic equation by using GraphPad prism to calculate the IC50 values of the compound.

[4] = target: 5-HT2A receptor (Homo sapiens (Human), UniProt P28223); test: Radioligand-receptor binding assay, 5-HT2A receptor ([3H]-Ketanserin); details: [3H]-Ketanserin 2 nM, human 5-HT2A receptor membrane; read-out: 5HT-2A binding activity IC50
Method: Determination of the Binding Ability of the Compounds of the Present Invention to 5-HT2A Receptor
The objective of this test example is to determine the affinity of the compounds for 5-HT2A receptor.
Assay buffer: 50 mM Tris-HCl pH 7.4, 4 mM CaCl2); wash solution: 50 mM Tris-HCl pH 7.4, stored at 4° C.; 0.5% PEI solution: 0.5 g PEI dissolve in 100 mL ddH2O, 4° C. storage of spare.
as §1, with “plate. 1.5” for “plate. 1”, “300 L” for “300 μL”, “each well. The” for “each well, and the”, “and [^3H]-Ketanserin” for “and [^3H]-methylspiperone”, “was 2” for “was 0.5”
as §2

Human Dopamine D3 Receptor, sequence (P35462 whole entry): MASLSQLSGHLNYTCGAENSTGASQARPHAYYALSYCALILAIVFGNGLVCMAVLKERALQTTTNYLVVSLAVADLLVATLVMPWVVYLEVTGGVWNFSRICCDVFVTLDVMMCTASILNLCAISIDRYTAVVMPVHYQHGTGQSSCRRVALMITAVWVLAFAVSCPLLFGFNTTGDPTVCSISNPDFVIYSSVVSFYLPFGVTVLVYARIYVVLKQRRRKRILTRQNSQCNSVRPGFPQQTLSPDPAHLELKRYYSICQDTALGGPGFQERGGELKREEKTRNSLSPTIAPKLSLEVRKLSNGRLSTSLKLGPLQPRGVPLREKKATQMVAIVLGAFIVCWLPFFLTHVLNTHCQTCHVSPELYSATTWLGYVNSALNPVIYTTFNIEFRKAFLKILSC
5-HT2A receptor, sequence (P28223 whole entry): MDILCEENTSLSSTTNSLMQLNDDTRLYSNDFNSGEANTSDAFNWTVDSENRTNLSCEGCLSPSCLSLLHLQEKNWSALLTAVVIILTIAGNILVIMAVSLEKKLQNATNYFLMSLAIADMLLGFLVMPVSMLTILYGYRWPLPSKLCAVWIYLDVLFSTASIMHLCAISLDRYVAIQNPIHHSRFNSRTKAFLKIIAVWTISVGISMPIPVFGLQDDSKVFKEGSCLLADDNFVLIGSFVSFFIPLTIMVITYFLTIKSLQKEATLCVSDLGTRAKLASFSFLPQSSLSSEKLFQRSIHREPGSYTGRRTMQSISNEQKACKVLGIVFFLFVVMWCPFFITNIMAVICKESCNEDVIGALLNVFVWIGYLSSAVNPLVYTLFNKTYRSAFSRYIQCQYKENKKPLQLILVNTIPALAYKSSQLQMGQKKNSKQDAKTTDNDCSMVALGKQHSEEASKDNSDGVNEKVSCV

CN(C)C(=O)N[C@H]1CC[C@H](CCN2CCN(c3cccc(Cl)c3Cl)CC2)CC1 [Cariprazine, reference compound]
half-life at 1 μM ([1]; CD-1, liver microsomes, pH 7.4, Mouse liver microsome 0.5 mg/mL, compound 1 μM, NADPH/UDPGA, read-out: Half life (t1/2)): 1.1 h
microsomal CLint at 1 μM ([1]; CD-1, liver microsomes, pH 7.4, Mouse liver microsome, note: Slow <8.8, Rapid >48.0, read-out: Intrinsic clearance rate (CLint)): 21.1 µL/min/mg
Remaining (%, 120 min) ([1]; Mouse liver microsome, 120 min): 30.5%
CAR value [2]: 45.5%
EF [2]: 5.5%

O=C(N[C@H]1CC[C@H](CCN2CCN(c3cccc4sccc34)CC2)CC1)N1CC(F)(F)C1 [Example 2, N-(Trans-4-(2-(4-(benzo[b]thiophen-4-yl)piperazin-1-yl)ethyl)cyclohexyl)-3,3-difluoro azetidine-1-carboxamide]
IC50 [3]: 0.76 nM
IC50 [4]: 3.4 nM

CC1(O)CN(C(=O)N[C@H]2CC[C@H](CCN3CCN(c4cccc5sccc45)CC3)CC2)C1 [Example 3, N-(Trans-4-(2-(4-(benzo[b]thiophen-4-yl)piperazin-1-yl)ethyl)cyclohexyl)-3-hydroxy-3-methylazetidine-1-carboxamide]
IC50 [3]: 1.59 nM

COC1(C)CN(C(=O)N[C@H]2CC[C@H](CCN3CCN(c4cccc5sccc45)CC3)CC2)C1 [Example 4, N-(Trans-4-(2-(4-(benzo[b]thiophen-4-yl)piperazin-1-yl)ethyl)cyclohexyl)-3-methoxy-3-methylazetidine-1-carboxamide]
IC50 [3]: 1.52 nM
IC50 [4]: 0.26 nM

CN(C)C(=O)N[C@H]1CC[C@](F)(CCN2CCN(c3cccc4sccc34)CC2)CC1 [Example 15, 3-(Cis-4-(2-(4-(benzo[b]thiophen-4-yl)piperazin-1-yl)ethyl)-4-fluorocyclohexyl)-1,1-dimethylurea]
IC50 [3]: 4.25 nM

CCNC(=O)N[C@H]1CC[C@](F)(CCN2CCN(c3cccc4sccc34)CC2)CC1 [Example 16, 1-(Cis-4-(2-(4-(benzo[b]thiophen-4-yl)piperazin-1-yl)ethyl)-4-fluorocyclohexyl)-3-ethylurea]
IC50 [3]: 0.57 nM
IC50 [4]: 2.07 nM

CN(C)C(=O)NC1CCC(CCN2CCN(c3cccc4sccc34)CC2)CC1F (stereo not shown) [Example 23, 3-(4-(2-(4-(Benzo[b]thiophen-4-yl)piperazin-1-yl)ethyl)-2-fluorocyclohexyl)-1,1-dimethylurea]
IC50 [3]: 2.69 nM
IC50 [4]: 6.45 nM

C[C@@H]1CN(c2cccc3sccc23)CCN1CC[C@H]1CC[C@H](Nc2ncc(C#N)cn2)CC1 [Example 44, 2-((Trans-4-(2-((R)-4-(benzo[b]thiophen-4-yl)-2-methylpiperazin-1-yl)ethyl)cyclohexyl)amino)pyrimidine-5-carbonitrile]
IC50 [3]: 1.58 nM
IC50 [4]: 2.59 nM

O=C(N[C@H]1CC[C@H](CCN2CCN(c3cccc4sccc34)CC2)CC1)c1ccco1 [Example 45, N-(Trans-4-(2-(4-(benzo[b]thiophen-4-yl)piperazin-1-yl)ethyl)cyclohexyl)furan-2-carboxamide]
IC50 [3]: 0.12 nM
IC50 [4]: 0.63 nM

Cc1ccc(C(=O)N[C@H]2CC[C@H](CCN3CCN(c4cccc5sccc45)CC3)CC2)o1 [Example 46, N-(Trans-4-(2-(4-(benzo[b]thiophen-4-yl)piperazin-1-yl)ethyl)cyclohexyl)-5-methylfuran-2-carboxamide]
IC50 [3]: 0.6 nM
IC50 [4]: 0.91 nM

COCC(=O)N[C@H]1CC[C@H](CCN2CCN(c3cccc4sccc34)CC2)CC1 [Example 47, N-(Trans-4-(2-(4-(benzo[b]thiophen-4-yl)piperazin-1-yl)ethyl)cyclohexyl)-2-methoxyacetamide]
IC50 [3]: 0.47 nM
IC50 [4]: 0.96 nM

CC(C)(O)CC(=O)N[C@H]1CC[C@H](CCN2CCN(c3cccc4sccc34)CC2)CC1 [Example 48, N-(Trans-4-(2-(4-(benzo[b]thiophen-4-yl)piperazin-1-yl)ethyl)cyclohexyl)-3-hydroxy-3-methylbutanamide]
IC50 [3]: 0.36 nM
IC50 [4]: 0.83 nM

Fc1cnc(N[C@H]2CC[C@H](CCN3CCN(c4cccc5sccc45)CC3)CC2)nc1 [Example 49, N-(Trans-4-(2-(4-(benzo[b]thiophen-4-yl)piperazin-1-yl)ethyl)cyclohexyl)-5-fluoropyrimidin-2-amine]
IC50 [3]: 2.43 nM
IC50 [4]: 0.34 nM

CON(C)C(=O)N[C@H]1CC[C@H](CCN2CCN(c3cccc4sccc34)CC2)CC1 [Example 50, 3-(Trans-4-(2-(4-(benzo[b]thiophen-4-yl)piperazin-1-yl)ethyl)cyclohexyl)-1-methoxy-1-methylurea]
IC50 [3]: 1.29 nM
IC50 [4]: 2.16 nM

O=C(NC1CCC(CCN2CCN(c3cccc4sccc34)CC2)CC1F)c1ccco1 (stereo not shown) [Example 51, N-(4-(2-(4-(Benzo[b]thiophen-4-yl)piperazin-1-yl)ethyl)-2-fluorocyclohexyl)furan-2-carboxamide]
IC50 [3]: 0.76 nM
IC50 [4]: 0.9 nM

— patent US12459931B2, “Benzothiophene derivative regulator, preparation method therefor and use thereof” (Shanghai Hansoh Biomedical Co., Ltd., priority 2019, dated 2025)
